Results taken from patent US8969410B1, “Pharmaceutical composition for alleviating or treating gout and uses thereof” (Industrial Technology Research Institute, priority 2013, dated 2015).

Assays:
Assay type in all cases: in vivo
[1] = test system: leukocyte cell (CD45+ cells); assay: Mouse air pouch model of MSU-induced gout: leukocyte cell density in exudate by flow cytometry; settings: for AVERAGE VALUES (normalized leukocyte cell density): Example 4, Table 2, topical paste 100 mg/mouse (5 mg actives total) 15 h prior to MSU, exudate 5 h after MSU; for INHIBITION RATE (leukocytes): Example 4, Table 2, vs blank control, topical paste 100 mg/mouse (5 mg actives total) 15 h prior to MSU
Text: (§1) Mouse Air pouch model: this mouse model may be referenced to the methods and the experimental details as in the published article “Role of S100A8 and S100A9 in neutrophil recruitment in response to monosodium urate monohydrate crystals in the air-pouch model of acute gouty arthritis”, Arthritis Rheum 2003 August, 48(8):2310-20. The full content of such document as a whole is incorporated by reference herein and made a part of this specification.
(§2) Before the experiment, the mice are shaved to remove back hair. At day 0 sterile filtered air (2 ml/per mouse) is injected through 0.22 μm microfilter to the back of each mouse subcutaneously, so that a pseudosynovial cavity is formed in each mouse. At day 3, an air booster (3 ml/mouse) is again given to each mouse, so that the air pouch is maintained round. Later, the mice are weighed and grouped so that the average weight of the mice in each group is about the same. At day 6 monosodium urate (MSU) crystal suspension (5 mg in 2 ml/per mouse) is injected into the air pouch. Topical application of the paste (100 mg paste/per mouse) is administrated 15 hours prior to MSU stimulation. At a specific time (5 hours) after the injection of MSU, the mice were euthanized with an excess of carbon dioxide, 2 ml PBS per mouse is injected into the air pouch, and the air pouch is carefully cut to collect the exudate. The collected exudate is subjected to the centrifugation at 1,000 rpm, 4° C. for 5 minutes, and the supernatant is then placed in a 96-well plate and stored at −20° C. An ELISA kit (purchased from R&D Systems) is used to analyze the contents of IL-1β and IL-6 in the exudate. The precipitate is resuspended and reacted with 1 ml red blood cell lysis buffer (RBC lysis buffer) for one minute to remove the red blood cells, followed by adding 1 ml PBS to terminate the reaction, centrifuged at 1,000 rpm, 25° C. for 5 minutes, and the supernatant is discarded. The precipitate is then resuspended in 1 ml PBS as the cell suspension and the cell suspension is filtered by filter membrane (BD Falcon 100 μm Nylon filter strainer) and the filtered cell suspension is dispensed into several tubes (0.25 ml/tube) for subsequent cell counting or for labelling with various differentiation antigen markers (such as cluster of differentiation (CD) markers). The flow cytometry is used for cell counting of the various cells.
(§3) In order to investigate the anti-gout efficacy of AG02-RA1 and AG04-RA1, either used alone or in combination, the experiments are performed to test AG02-RA1 alone, AG04-RA1 alone and the combination (s) of AG02-RA1:AG04-RA1 in the ratio of 50:50 (Composition Nos. 1, 2 and 3 as shown in Table 1). […]

[2] = test system: neutrophil cell (CD45+/Ly6G+ cells); assay: Mouse air pouch model of MSU-induced gout: neutrophil cell density in exudate by flow cytometry; settings: for AVERAGE VALUES (neutrophil cell density): Example 4, Table 3, topical paste 100 mg/mouse (5 mg actives total) 15 h prior to MSU, exudate 5 h after MSU; for INHIBITION RATE (neutrophils): Example 4, Table 3, vs blank control, topical paste 100 mg/mouse (5 mg actives total)
Text: as §1, §2, §3

interleukin-1β (mIL-1β) = assay: Mouse air pouch model of MSU-induced gout: IL-1β in exudate by ELISA; settings: Example 4, FIG. 3; topical paste 100 mg/mouse (5 mg actives total) 15 h prior to MSU; exudate 5 h after MSU
Text: as §1
(§4) Before the experiment, the mice are shaved to remove back hair. At day 0 sterile filtered air (2 ml/per mouse) is injected through 0.22 μm microfilter to the back of each mouse subcutaneously, so that a pseudosynovial cavity is formed in each mouse. At day 3, an air booster (3 ml/mouse) is again given to each mouse, so that the air pouch is maintained round. Later, the mice are weighed and grouped so that the average weight of the mice in each group is about the same. At day 6 monosodium urate (MSU) crystal suspension (5 mg in 2 ml/per mouse) is injected into the air pouch. Topical application of the paste (100 mg paste/per mouse) is administrated 15 hours prior to MSU stimulation. At a specific time (5 hours) after the injection of MSU, the mice were euthanized with an excess of carbon dioxide, 2 ml PBS per mouse is injected into the air pouch, and the air pouch is carefully cut to collect the exudate. […]

interleukin-6 (mIL-6) = assay: Mouse air pouch model of MSU-induced gout: IL-6 in exudate by ELISA; settings: Example 4, FIG. 4; topical paste 100 mg/mouse (5 mg actives total) 15 h prior to MSU; exudate 5 h after MSU
Text: as §1, §4

Row | SMILES | AVERAGE VALUES (normalized leukocyte cell density) [1] | INHIBITION RATE (leukocytes) [1] | AVERAGE VALUES (neutrophil cell density) [2] | INHIBITION RATE (neutrophils) [2] | inhibition rate of interleukin-1β secretion amount (interleukin-1β (mIL-1β)) | inhibition rate of interleukin-6 secretion amount (interleukin-6 (mIL-6))
1 | CC(=O)OCC=Cc1ccc(OC(C)=O)cc1 [AG04-RA1, 4-(3-acetoxy-propenyl)-phenyl acetate] | 670 cells*10^3/ml | 17% | 205 cells*10^3/ml | 43% | > 50% | > 50%
2 | C=C1C(=O)OC2/C=C(\C)CC3C=C(CC/C=C(\C)CCC12)C(=O)O3 (stereo not shown) [AG02-RA1, 3,7,11,15(17)-cembratetraene-16,2:19,6-diolide-3484-37-5(3E,12E)-3,12-dimethyl-8-methylene-6,18-dioxa-tricyclo[14.2.1.0.5,9]nonadeca-3,12,16(19)-triene-7,17-dione] | 1609 cells*10^3/ml | −100% | 133 cells*10^3/ml | 63% |  | 
